Laboratory results: ChEMBL document CHEMBL4177738, “Synthesis and evaluation of a class of 1,4,7-triazacyclononane derivatives as iron depletion antitumor agents” (Bioorg Med Chem Lett, 2018)
The source made the active and inactive calls. The rule behind the calls is not given here.

Columns and labels:
[1] = tested on: HepG2; assay: Antiproliferative activity against human HepG2 cells assessed as reduction in cell viability incubated for 72 hrs by MTT assay; format: functional, cell-based; conditions: HepG2, 72 h
[2] = tested on: L02; assay: Antiproliferative activity against human LO2 cells assessed as reduction in cell viability at 50 uM incubated for 72 hrs by MTT assay; format: cell-based; conditions: l02, 72 h
[3] = tested on: L02; assay: Increase in cell viability in human LO2 cells at 50 uM incubated for 72 hrs by MTT assay relative to untreated control; format: functional
[4] = tested on: HepG2; assay: Antiproliferative activity against human HepG2 cells assessed as reduction in cell viability at 50 uM incubated for 72 hrs by MTT assay; format: functional; conditions: HepG2, 72 h
[5] = tested on: HepG2; assay: Antiproliferative activity against human HepG2 cells assessed as reduction in cell viability at 50 uM incubated for 72 hrs in presence of 50 uM iron chloride by MTT assay; format: functional, cell-based

| IC50 [1] | Structure (SMILES) | Activity [2] | fold change (FC) [3] | inhibition at 50 µM [4] | inhibition [5] |
| --- | --- | --- | --- | --- | --- |
| 6.9 µM | O=C(O)CN1CCN(CCn2cccc(O)c2=O)CCN(CC(=O)O)CC1 | Non-Toxic | 3 - 8 | 80% | inactive |
| > 100 µM | CC(=O)N(O)CCCCCNC(=O)CCC(=O)N(O)CCCCCNC(=O)CCC(=O)N(O)CCCCCN [DEFEROXAMINE] | Non-Toxic |  | 40% | inactive |
| 1.4 µM | O=C(O)CN(CCCc1ccc([N+](=O)[O-])cc1)CCN1CCN(CC(=O)O)CCN(CC(=O)O)CC1 | Non-Toxic | 3 - 8 |  |  |

Second part, the compound before the results:

| Structure (SMILES) | IC50 [1] | Activity [2] | fold change (FC) [3] | inhibition at 50 µM [4] | inhibition [5] |
| --- | --- | --- | --- | --- | --- |
| O=C(O)CN(CCN1CCN(CP(=O)(O)O)CCN(CP(=O)(O)O)CC1)CC(=O)O | 3.8 µM | Non-Toxic | 3 - 8 |  |  |
| O=C(O)CN(CCN(CC(=O)O)CC(=O)O)CCN(CC(=O)O)CC(=O)O [PENTETIC ACID] | 38.3 µM | Non-Toxic |  | 60% | inactive |
| Nc1ccc(CCCN(CCN2CCN(CC(=O)O)CCN(CC(=O)O)CC2)CC(=O)O)cc1 | 1.5 µM | Non-Toxic | 3 - 8 |  |  |
| O=C(O)CN1CCN(CC(=O)O)CCN(CC(Cc2ccc([N+](=O)[O-])cc2)N(CC(=O)O)CC(=O)O)CC1 (stereo not given) | 8.2 µM | Non-Toxic | 3 - 8 |  |  |
| O=C(O)CN1CCN(CCCn2cccc(O)c2=O)CCN(CC(=O)O)CC1 | 4.5 µM | Non-Toxic | 3 - 8 | 80% | inactive |
